Experiments:
Assay in all cases: Test C greenhouse herbicide test, pre- and postemergence
Format in all cases: in vivo
[1] = tested on: lambsquarters (Chenopodium album)
Method in brief: (§1)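 Two application timings: at sowing into a soil/sand blend, and on 2–18 cm seedlings in peat-vermiculite potting mix. A non-phytotoxic, surfactant-containing solvent carried the compounds. Plants were compared with controls and rated visually on 0–100 after 13–15 d.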

[2] = tested on: ragweed (common ragweed, Ambrosia elatior)
Method in brief: as §1

[3] = tested on: galium (catchweed bedstraw, Galium aparine)
Method in brief: as §1

soybean (Glycine max) = tested on: soybean (Glycine max)
Method in brief: as §1

[4] = tested on: johnsongrass (Sorghum halepense)
Method in brief: as §1

[5] = tested on: barnyardgrass (Echinochloa crus-galli)
Method in brief: as §1

[6] = tested on: nutsedge, yellow (yellow nutsedge, Cyperus esculentus)
Method in brief: as §1

[7] = tested on: oilseed rape (Brassica napus)
Method in brief: as §1

[8] = tested on: foxtail, giant (giant foxtail, Setaria faberii)
Method in brief: as §1

[9] = tested on: waterhemp (common waterhemp, Amaranthus rudis)
Method in brief: as §1

[10] = tested on: crabgrass, large (large crabgrass, Digitaria sanguinalis)
Method in brief: as §1

[11] = tested on: wheat (winter wheat, Triticum aestivum)
Method in brief: as §1

[12] = Postemergence, 31 g ai/ha, 0 to 100 scale (0 no effect, 100 complete control)
[13] = Postemergence, 125 g ai/ha, scale 0 to 100, 0 is no effect, 100 is complete control
[14] = Postemergence, 250 g ai/ha, scale 0 to 100, 0 no effect, 100 complete control, 13 to 15 d
[15] = Preemergence, 31 g ai/ha, scale 0 to 100, 0 is no effect, 100 is complete control
[16] = Preemergence, 62 g ai/ha, scale 0 to 100, 0 is no effect, 100 is complete control
[17] = Preemergence, 125 g ai/ha, scale 0 to 100, 0 is no effect, 100 is complete control
[18] = Preemergence, 250 g ai/ha, scale 0 to 100, 0 no effect, 100 complete control
[19] = postemergence, 62 g ai/ha, scale 0 to 100, 0 no effect, 100 complete control

## Cn1nc(Br)c(O)c(-c2cccc3ccccc23)c1=O [Compound 20]
[1]; [12]
  Lambsquarters plant response rating: 80
[1]; [13]
  Plant response rating, Lambsquarters: 100
[1]; [14]
  Plant response rating, Lambsquarters: 100
[1]; [15]
  Plant response rating, Lambsquarters: 80
[1]; [16]
  Plant response rating, Lambsquarters: 85
[1]; [17]
  Plant response rating, Lambsquarters: 85
[1]; [18]
  Lambsquarters plant response rating: 90
[1]; [19]
  Lambsquarters plant response rating: 85
[2]; [12]
  Ragweed plant response rating: 80
[2]; [13]
  Plant response rating, Ragweed: 95
[2]; [14]
  Plant response rating, Ragweed: 100
[2]; [15]
  Plant response rating, Ragweed: 35
[2]; [16]
  Plant response rating, Ragweed: 45
[2]; [17]
  Plant response rating, Ragweed: 70
[2]; [18]
  Ragweed plant response rating: 75
[2]; [19]
  Ragweed plant response rating: 85
[3]; [12]
  Galium plant response rating: 98
[3]; [13]
  Plant response rating, Galium: 100
[3]; [14]
  Plant response rating, Galium: 100
[3]; [15]
  Plant response rating, Galium: 90
[3]; [16]
  Plant response rating, Galium: 100
[3]; [17]
  Plant response rating, Galium: 95
[3]; [18]
  Galium plant response rating: 95
[3]; [19]
  Galium plant response rating: 100
Soybean (Glycine max); [12]
  Soybean plant response rating: 0
Soybean (Glycine max); [13]
  Plant response rating, Soybean: 35
Soybean (Glycine max); [14]
  Plant response rating, Soybean: 0
Soybean (Glycine max); [16]
  Plant response rating, Soybean: 20
Soybean (Glycine max); [17]
  Plant response rating, Soybean: 30
Soybean (Glycine max); [18]
  Soybean plant response rating: 30
Soybean (Glycine max); [19]
  Soybean plant response rating: 0
[4]; [12]
  Johnsongrass plant response rating: 5
[4]; [13]
  Plant response rating, Johnsongrass: 10
[4]; [14]
  Plant response rating, Johnsongrass: 10
[4]; [15]
  Plant response rating, Johnsongrass: 0
[4]; [16]
  Plant response rating, Johnsongrass: 0
[4]; [17]
  Plant response rating, Johnsongrass: 0
[4]; [18]
  Johnsongrass plant response rating: 10
[4]; [19]
  Johnsongrass plant response rating: 10
[5]; [12]
  Barnyardgrass plant response rating: 5
[5]; [13]
  Plant response rating, Barnyardgrass: 30
[5]; [14]
  Plant response rating, Barnyardgrass: 45
[5]; [15]
  Plant response rating, Barnyardgrass: 5
[5]; [16]
  Plant response rating, Barnyardgrass: 30
[5]; [17]
  Plant response rating, Barnyardgrass: 60
[5]; [18]
  Barnyardgrass plant response rating: 85
[5]; [19]
  Barnyardgrass plant response rating: 10
[6]; [12]
  Nutsedge, Yellow plant response rating: 45
[6]; [13]
  Plant response rating, Nutsedge, Yellow: 85
[6]; [14]
  Plant response rating, Nutsedge, Yellow: 95
[6]; [15]
  Plant response rating, Nutsedge, Yellow: 80
[6]; [16]
  Plant response rating, Nutsedge, Yellow: 85
[6]; [17]
  Plant response rating, Nutsedge, Yellow: 95
[6]; [18]
  Nutsedge, Yellow plant response rating: 95
[6]; [19]
  Nutsedge, Yellow plant response rating: 65
[7]; [12]
  Oilseed Rape plant response rating: 0
[7]; [13]
  Plant response rating, Oilseed Rape: 5
[7]; [14]
  Plant response rating, Oilseed Rape: 25
[7]; [15]
  Plant response rating, Oilseed Rape: 0
[7]; [16]
  Plant response rating, Oilseed Rape: 0
[7]; [17]
  Plant response rating, Oilseed Rape: 0
[7]; [18]
  Oilseed Rape plant response rating: 20
[7]; [19]
  Oilseed Rape plant response rating: 0
[8]; [12]
  Foxtail, Giant plant response rating: 0
[8]; [13]
  Plant response rating, Foxtail, Giant: 45
[8]; [14]
  Plant response rating, Foxtail, Giant: 80
[8]; [15]
  Plant response rating, Foxtail, Giant: 5
[8]; [16]
  Plant response rating, Foxtail, Giant: 30
[8]; [17]
  Plant response rating, Foxtail, Giant: 65
[8]; [18]
  Foxtail, Giant plant response rating: 85
[8]; [19]
  Foxtail, Giant plant response rating: 25
[9]; [12]
  Waterhemp plant response rating: 70
[9]; [13]
  Plant response rating, Waterhemp: 60
[9]; [14]
  Plant response rating, Waterhemp: 90
[9]; [16]
  Plant response rating, Waterhemp: 100
[9]; [17]
  Plant response rating, Waterhemp: 100
[9]; [18]
  Waterhemp plant response rating: 100
[9]; [19]
  Waterhemp plant response rating: 40
[10]; [12]
  Crabgrass, Large plant response rating: 5
[10]; [13]
  Plant response rating, Crabgrass, Large: 10
[10]; [14]
  Plant response rating, Crabgrass, Large: 30
[10]; [15]
  Plant response rating, Crabgrass, Large: 10
[10]; [16]
  Plant response rating, Crabgrass, Large: 15
[10]; [17]
  Plant response rating, Crabgrass, Large: 15
[10]; [18]
  Crabgrass, Large plant response rating: 60
[10]; [19]
  Crabgrass, Large plant response rating: 10
[11]; [12]
  Wheat plant response rating: 0
[11]; [13]
  Plant response rating, Wheat: 0
[11]; [14]
  Plant response rating, Wheat: 0
[11]; [16]
  Plant response rating, Wheat: 0
[11]; [17]
  Plant response rating, Wheat: 35
[11]; [18]
  Wheat plant response rating: 30
[11]; [19]
  Wheat plant response rating: 0
